Test results as given in patent US10508098B2, “Quinazolinones and azaquinazolinones as ubiquitin-specific protease 7 inhibitors” (FORMA Therapeutics, Inc., priority 2015, dated 2019).

Target: USP7 (Homo sapiens (Human), UniProt Q93009)
Test: USP7 Assays A and B (Ubiquitin-Rhodamine 110 assay)
Type: biochemical
Conditions: USP7 (208-1102) 6*His; substrate Ub-Rh110 25 nM; assays A and B not distinguished
Procedure: Example 9: USP7 Assay A (Ubitquin-Rhodamine 110 Assay)
Each assay was performed in a final volume of 15 μL in assay buffer containing 20 mM Tris-HCl (pH 8.0, (1M Tris-HCl, pH 8.0 solution; Corning 46-031-CM)), 1 mM GSH (L-Glutathione reduced; Sigma #G4251), 0.03% BGG (0.22 μM filtered, Sigma, #G7516-25G), and 0.01% Triton X-100 (Sigma, #T9284-10L). Nanoliter quantities of either an 8-point or 10-point, 3-fold serial dilution in DMSO was pre-dispensed into assay plates (Perkin Elmer, ProxiPlate-384 F Plus, #6008269) for a final test concentration range of either 25 μM to 11 nM or 25 μM to 1.3 nM, respectively. The final concentration of the enzyme (USP7, construct USP7 (208-1102) 6*His, Viva Biotech) in the assay was 62.5 pM. Final substrate (Ub-Rh110; Ubiquitin-Rhodamine 110, R&D Systems #U-555) concentration was 25 nM with [Ub-Rh110]<<Km. 5 μL of 2× enzyme was added to assay plates (pre-stamped with compound) preincubated with USP7 for 30 min and then 5 μL of 2×Ub-Rh110 was added to assay plates. Plates were incubated stacked for 20 min at room temperature before 5 μL of stop solution (final concentration of 10 mM citric acid in assay buffer (Sigma, #251275-500G)). Fluorescence was read on the Envision (Excitation at 485 nm and Emission at 535 nm; Perkin Elmer) or on the PheraSTAR (Excitation at 485 nm and Emission at 535 nm; BMG Labtech).
Example 10: USP7 Assay B (Ubitquin-Rhodamine 110 Assay)
Each assay was performed in a final volume of 20 μL in assay buffer containing 20 mM Tris-HCl (pH 8.0, (1M Tris-HCl, pH 8.0 solution; Corning 46-031-CM)), 2 mM CaCl2 (1M Calcium Chloride solution; Sigma #21114) 1 mM GSH (L-Glutathione reduced; Sigma #G4251), 0.01% Prionex (0.22 μM filtered, Sigma #G-0411), and 0.01% Triton X-100. Stock compound solutions were stored at −20° C. as 10 mM in DMSO. Up to 1 month prior to the assay, 2 mM test compounds were pre-dispensed into assay plates (Black, low volume; Corning #3820) and frozen at −20° C. Prestamped assay plates were allowed to come to room temperature on the day of the assay. For the screen, 100 nL of 2 mM was pre-dispensed for a final screening concentration of 10 μM (DMSO(fc)=0.5%). For follow-up studies, 250 nL of an 8-point, 3-fold serial dilution in DMSO was pre-dispensed into assay plates for a final test concentration of 25 μM-11 nM (1.25% DMSO final concentration). Unless otherwise indicated, all follow-up assays were run on triplecate plates. Enzyme (USP7, construct Met (208-1102)-TEV-6*His; Viva Q93009-1) concentration and incubation times were optimized for the maximal signal-to-background while maintaining initial velocity conditions at a fixed substrate concentration. The final concentration of the enzyme in the assay was either 75 pM or 250 pM. Final substrate (Ub-Rh110; Ubiquitin-Rhodamine 110, R&D Systems (biotechne)#U-555) concentration was 25 nM with [Ub-Rh110]<<Km. Pre-stamped with compounds were either not preincubated or preincubated with USP7 between 30 to 120 min prior to the addition of 10 μL of 2×Ub-Rh110 to compound plates. Plates were incubated stacked for either 23 or 45 min at room temperature before fluorescence was read on the Envision (Excitation at 485 nm and Emission at 535 nm; Perkin Elmer) or on the PheraSTAR (Excitation at 485 nm and Emission at 535 nm; BMG Labtech).
Data from USP7 Assays A and B were reported as percent inhibition (inh) compared with control wells based on the following equation: % inh=1−((FLU−AveLow)/(AveHigh−AveLow)) where FLU=measured Fluorescence. AveLow=average Fluorescence of no enzyme control (n=16). AveHigh=average Fluorescence of DMSO control (n=16). IC50 values were determined by curve fitting of the standard 4 parameter logistic fitting algorithm included in the Activity Base software package: IDBS XE Designer Model205. Data is fitted using the Levenburg Marquardt algorithm.

USP7, sequence (Q93009 208-1102): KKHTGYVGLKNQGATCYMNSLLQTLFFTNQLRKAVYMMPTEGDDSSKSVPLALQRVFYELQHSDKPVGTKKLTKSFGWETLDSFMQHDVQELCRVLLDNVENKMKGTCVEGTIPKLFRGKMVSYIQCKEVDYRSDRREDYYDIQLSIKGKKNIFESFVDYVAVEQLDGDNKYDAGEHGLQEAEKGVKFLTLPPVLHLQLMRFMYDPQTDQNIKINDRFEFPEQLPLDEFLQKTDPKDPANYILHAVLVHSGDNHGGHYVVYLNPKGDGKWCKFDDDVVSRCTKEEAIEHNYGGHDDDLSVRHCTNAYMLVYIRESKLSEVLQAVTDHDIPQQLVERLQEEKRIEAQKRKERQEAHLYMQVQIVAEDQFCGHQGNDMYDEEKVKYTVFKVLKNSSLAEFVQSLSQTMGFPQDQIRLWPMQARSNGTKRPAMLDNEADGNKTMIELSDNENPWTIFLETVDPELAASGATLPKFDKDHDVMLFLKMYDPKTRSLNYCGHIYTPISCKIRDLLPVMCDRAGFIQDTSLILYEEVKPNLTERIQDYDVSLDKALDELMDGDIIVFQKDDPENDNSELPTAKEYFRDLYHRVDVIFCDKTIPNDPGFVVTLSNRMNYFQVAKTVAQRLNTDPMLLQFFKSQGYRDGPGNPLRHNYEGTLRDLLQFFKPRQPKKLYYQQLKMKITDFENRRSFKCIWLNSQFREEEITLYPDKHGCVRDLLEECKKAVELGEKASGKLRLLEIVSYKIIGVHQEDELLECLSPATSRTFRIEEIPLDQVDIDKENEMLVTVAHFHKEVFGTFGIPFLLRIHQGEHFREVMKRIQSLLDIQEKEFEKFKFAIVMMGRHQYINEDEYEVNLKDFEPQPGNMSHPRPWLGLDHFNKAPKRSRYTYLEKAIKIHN

**Q.** How did the IC50 turn out when `COc1ccc2c(=O)n(CC3(O)CCN(C(=O)CC(C)c4ccccc4)CC3)cnc2c1` (stereo not shown) [Compound I-1, 3-((4-hydroxy-1-(3-phenylbutanoyl)piperidin-4-yl)methyl)-7-methoxyquinazolin-4(3H)-one] was run?
**A.** Its IC50 is < 200 nM.

**Q.** How did the IC50 turn out when `Cc1cccc2c(=O)n(CC3(O)CCN(C(=O)CC(C)c4ccccc4)CC3)cnc12` (stereo not shown) [Compound I-2, 3-((4-hydroxy-1-(3-phenylbutanoyl)piperidin-4-yl)methyl)-8-methylquinazolin-4(3H)-one] was run?
**A.** Its IC50 is < 200 nM.

**Q.** Which IC50 does the source give for `CC(CC(=O)N1CCC(O)(Cn2cnc3cc(N)ccc3c2=O)CC1)c1ccccc1` (stereo not shown) [Compound I-3, 7-amino-3-((4-hydroxy-1-(3-phenylbutanoyl)piperidin-4-yl)methyl)quinazolin-4(3H)-one] here?
**A.** The IC50 was < 200 nM.

**Q.** With `CC(=O)Nc1ccc2c(=O)n(CC3(O)CCN(C(=O)CC(C)c4ccccc4)CC3)cnc2c1` (stereo not shown) [Compound I-4, N-(3-((4-hydroxy-1-(3-phenylbutanoyl)piperidin-4-yl)methyl)-4-oxo-3,4-dihydroquinazolin-7-yl)acetamide] as the compound, how does the IC50 read?
**A.** The IC50 was < 200 nM.

**Q.** How did the IC50 turn out when `COc1ccc2c(=O)n(CC3(O)CCN(C(=O)C[C@@H](C)c4ccccc4)CC3)cnc2c1` [Compound I-5, (R)-3-((4-hydroxy-1-(3-phenylbutanoyl)piperidin-4-yl)methyl)-7-methoxyquinazolin-4(3H)-one] was run?
**A.** Its IC50 is < 200 nM.

**Q.** With `Cc1cccc2c(=O)n(CC3(O)CCN(C(=O)C[C@@H](C)c4ccccc4)CC3)cnc12` [Compound I-6, (R)-3-((4-hydroxy-1-(3-phenylbutanoyl)piperidin-4-yl)methyl)-8-methylquinazolin-4(3H)-one] as the compound, how does the IC50 read?
**A.** The IC50 was < 200 nM.

**Q.** Which IC50 does the source give for `Cc1ccc2c(=O)n(CC3(O)CCN(C(=O)c4ccc5c(c4)CCN5Cc4ccccc4)CC3)cnc2c1` [Compound I-7, 3-((1-(1-benzylindoline-5-carbonyl)-4-hydroxypiperidin-4-yl)methyl)-7-methylquinazolin-4(3H)-one] here?
**A.** Its IC50 is 1000 to 10000 nM.

**Q.** `O=C(c1ccccc1)N1CCC(O)(Cn2cnc3cc(-c4ccccc4)ccc3c2=O)CC1` [Compound I-8, 3-((1-benzoyl-4-hydroxypiperidin-4-yl)methyl)-7-phenylquinazolin-4(3H)-one] was tested. Which IC50 did it give?
**A.** The IC50 was > 10000 nM.

**Q.** Which IC50 does the source give for `O=C(c1ccccc1)N1CCC(O)(Cn2cnc3c(-c4ccccc4)cccc3c2=O)CC1` [Compound I-9, 3-((1-benzoyl-4-hydroxypiperidin-4-yl)methyl)-8-phenylquinazolin-4(3H)-one] here?
**A.** The IC50 was 1000 to 10000 nM.

**Q.** Which IC50 does the source give for `O=C(c1ccc(F)cc1)N1CCC(O)(Cn2cnc3c(Oc4ccc(F)cc4)cccc3c2=O)CC1` [Compound I-10, 3-((1-(4-fluorobenzoyl)-4-hydroxypiperidin-4-yl)methyl)-8-(4-fluorophenoxy)quinazolin-4(3H)-one] here?
**A.** The IC50 was 1000 to 10000 nM.

**Q.** Which IC50 does the source give for `CC(CC(=O)N1CCC(O)(Cn2cnc3ncccc3c2=O)CC1)c1ccccc1` (stereo not shown) [Compound I-11, 3-((4-hydroxy-1-(3-phenylbutanoyl)piperidin-4-yl)methyl)pyrido[2,3-d]pyrimidin-4(3H)-one] here?
**A.** Its IC50 is > 10000 nM.

**Q.** For `CC(CC(=O)N1CCC(O)(Cn2cnc3cnccc3c2=O)CC1)c1ccccc1` (stereo not shown) [Compound I-12, 3-((4-hydroxy-1-(3-phenylbutanoyl)piperidin-4-yl)methyl)pyrido[3,4-d]pyrimidin-4(3H)-one], which IC50 is on record?
**A.** Its IC50 is 1000 to 10000 nM.

**Q.** For `CC(CC(=O)N1CCC(O)(Cn2cnc3cccnc3c2=O)CC1)c1ccccc1` (stereo not shown) [Compound I-13, 3-((4-hydroxy-1-(3-phenylbutanoyl)piperidin-4-yl)methyl)pyrido[3,2-d]pyrimidin-4(3H)-one], which IC50 is on record?
**A.** Its IC50 is 200 to 1000 nM.
